Data from BindingDB's records for doi:10.1021/acs.jmedchem.8b01644 (University of Montpellier, 2019).
Positions of bridges follow the written chain, without caps; N, C: chain ends. Non-standard residues stand in square brackets, D forms with d. Residues, ends and D or L forms follow the SMILES beside them. Nle = CCCC[C@H](N)C(=O)O

How the values were obtained:
[1] = Antagonist activity at human SNAP-tagged GHSR expressed in HEK293T cells assessed as reduction in ghrelin-induced calcium production at 1 uM by measuring ghrelin EC50 after 15 mins by Fluo 4-AM dye-based fluorescence assay (Rvb = 0.41 +/- […])
[2] = Antagonist activity at SNAP-tagged human GHSR expressed in HEK293T cells assessed as reduction in ghrelin-induced inositol phosphate production at 1 uM by measuring ghrelin EC50 after 30 mins by HTRF assay (Rvb = 0.36 +/- 0.01 nM)
[3] = Antagonist activity at human SNAP-tagged GHSR expressed in HEK293T cells assessed as reduction in ghrelin-induced calcium production at 1 uM by measuring ghrelin EC50 after 15 mins by Fluo 4-AM dye-based fluorescence assay (Rvb = 0.34 +/- 0.12 nM)
[4] = Antagonist activity at SNAP-tagged human GHSR expressed in HEK293T cells assessed as reduction in ghrelin-induced inositol phosphate production at 1 uM by measuring ghrelin EC50 after 30 mins by HTRF assay (Rvb = 0.40 +/- 0.05 nM)

Row | Structure (SMILES) | EC50 [1] [nM] | EC50 [2] [nM] | EC50 [3] [nM] | EC50 [4] [nM]
1 | CC[C@H](C)[C@@H]1NC(=O)[C@@H]2CSSC[C@@H](C(=O)N[C@@H](CO)C(=O)N[C@@H](CC(C)C)C(=O)N[C@@H](CO)C(=O)N[C@H](C(=O)N[C@@H](C)C(=O)N[C@@H](CCC(N)=O)C(=O)N[C@@H](CCC(=O)O)C(=O)O)C(C)C)NC(=O)[C@H](CCCNC(=N)N)NC(=O)[C@H](CCCNC(=N)N)NC(=O)[C@H](CCCCN)NC(=O)[C@H](CCCNC(=N)N)NC(=O)[C@H](CSSC[C@H](NC(=O)[C@H](CO)NC(=O)[C@H](C)NC(=O)CNC(=O)[C@@H](NC(=O)[C@@H]3CCCN3C(=O)[C@H](CCCNC(=N)N)NC(=O)[C@H](CC(C)C)NC(=O)[C@H](CO)NC(=O)[C@@H](NC(=O)CNC(=O)[C@H](CCCNC(=N)N)NC(=O)[C@H](Cc3c[nH]c4ccccc34)NC(=O)[C@H](Cc3ccccc3)NC(=O)[C@@H]3CCCN3C(=O)[C@@H](NC(=O)[C@@H](N)CCSC)[C@@H](C)O)C(C)C)[C@@H](C)CC)C(=O)N[C@@H](CCCNC(=N)N)C(=O)N[C@@H](CC(=O)O)C(=O)N[C@@H](CC(=O)O)C(=O)N[C@@H](CO)C(=O)N[C@@H](CCC(=O)O)C(=O)N2)NC(=O)[C@H](CC(C)C)NC(=O)[C@H](CCCNC(=N)N)NC(=O)[C@H]([C@@H](C)O)NC1=O (H-MTPFWRGVSLRPIGASCRDDSECITRLCRKRRCSLSVAQE-OH; disulfide 17-28, 23-33) | 28 | 17 |  | 
2 | CCCC[C@H](N)C(=O)N[C@H](C(=O)N1CCC[C@H]1C(=O)N[C@@H](Cc1ccccc1)C(=O)N[C@@H](Cc1c[nH]c2ccccc12)C(=O)N[C@@H](CCCNC(=N)N)C(=O)NCC(=O)N[C@H](C(=O)N[C@@H](CO)C(=O)N[C@@H](CC(C)C)C(=O)N[C@@H](CCCNC(=N)N)C(=O)N1CCC[C@H]1C(=O)N[C@H](C(=O)NCC(=O)O)[C@@H](C)CC)C(C)C)[C@@H](C)O (H-[Nle]TPFWRGVSLRPIG-OH) |  |  | 18 | 2.5
